What was measured:
[1] = PDMS sheets cleaned by Soxhlet with ethyl acetate; batch shaking method with a mixture of all chemicals at several PDMS-mass to water-volume ratios and spiked levels; vials shaken on an orbital shaker at room temperature in the dark, sampled at two equilibration times; PDMS extracts and water quantified by LC-HRMS (Orbitrap); D from the slope of C_PDMS on C_w or their ratio; value is the mean over that pH's experiments (individual experiments in the SI's concentrations table), sd is the table's stdev; details: PDMS (polydimethylsiloxane silicone sheet), phosphate buffer at three target pH values (the paper's methods)
[2] = neutral chemical: log K is the mean of log D over all measurements at the three pH values (D shown independent of pH, paired t-test); sd is the table's stddev. PDMS sheets cleaned by Soxhlet with ethyl acetate; batch shaking method with a mixture of all chemicals at several PDMS-mass to water-volume ratios and spiked levels; vials shaken on an orbital shaker at room temperature in the dark, sampled at two equilibration times; PDMS extracts and water quantified by LC-HRMS (Orbitrap); D from the slope of C_PDMS on C_w or their ratio; details: PDMS (polydimethylsiloxane silicone sheet); phosphate buffer at three target pH values (the paper's methods)
[3] = monoprotic acid or base: log K of the neutral species extrapolated from the linear regression of D on the neutral fraction (from pKa and pH; the paper's eq. for monoprotic IOCs), the slope giving K of the neutral species; replicates column holds the table's 95% confidence limits. PDMS sheets cleaned by Soxhlet with ethyl acetate; batch shaking method with a mixture of all chemicals at several PDMS-mass to water-volume ratios and spiked levels; vials shaken on an orbital shaker at room temperature in the dark, sampled at two equilibration times; PDMS extracts and water quantified by LC-HRMS (Orbitrap); D from the slope of C_PDMS on C_w or their ratio; details: PDMS (polydimethylsiloxane silicone sheet); phosphate buffer at three target pH values (the paper's methods)

| log D PDMS/w (apparent distribution ratio at the stated pH) ([1]; pH 3) | log D PDMS/w (apparent distribution ratio at the stated pH) ([1]; pH 7.4) | log D PDMS/w (apparent distribution ratio at the stated pH) ([1]; pH 11.5) | log K PDMS/w (neutral species) [2] | log K PDMS/w (neutral species) [3] | Structure (SMILES) |
| --- | --- | --- | --- | --- | --- |
| 1.579 log units; D and K as the pape | 1.554 log units; D and K as the pape | 1.65 log units; D and K as the pape | 1.593 log units; D and K as the pape |  | Cc1c(C(C)C)c(=O)n(-c2ccccc2)n1C |
| 1.406 log units; D and K as the pape | 1.371 log units; D and K as the pape | 1.462 log units; D and K as the pape | 1.409 log units; D and K as the pape |  | CN(C)C(=O)Nc1ccc(Cl)c(Cl)c1 |
| 1.032 log units; D and K as the pape |  |  |  | 1.057 log units; D and K as the pape | CCC1(c2ccccc2)C(=O)NCNC1=O |
| 1.11 log units; D and K as the pape | 1.067 log units; D and K as the pape | 1.073 log units; D and K as the pape |  | 1.285 log units; D and K as the pape | CC(C)(C)c1ccc(S(N)(=O)=O)cc1 |
| 2.835 log units; D and K as the pape | 2.884 log units; D and K as the pape |  |  | 2.899 log units; D and K as the pape | O=C1Nc2ccc(Cl)cc2C(C#CC2CC2)(C(F)(F)F)O1 (stereo not shown) |
| -0.92 log units; D and K as the pape | 1.409 log units; D and K as the pape | 2.124 log units; D and K as the pape |  | 2.203 log units; D and K as the pape | Cc1nccn1CC1CCc2c(c3ccccc3n2C)C1=O (stereo not shown) |
| 0.51 log units; D and K as the pape | 0.4188 log units; D and K as the pape | 0.4886 log units; D and K as the pape |  | 0.5936 log units; D and K as the pape | CCNS(=O)(=O)c1ccccc1C |
| -0.445 log units; D and K as the pape | 2.315 log units; D and K as the pape | 2.443 log units; D and K as the pape |  | 2.458 log units; D and K as the pape | c1ccc2c(c1)[nH]c1ccncc12 |
| 0.7917 log units; D and K as the pape | 0.8008 log units; D and K as the pape | 0.8475 log units; D and K as the pape |  | 0.9136 log units; D and K as the pape | Cc1cc(=O)oc2cc(N)ccc12 |

The next lines start with the molecule.

| Structure (SMILES) | log D PDMS/w (apparent distribution ratio at the stated pH) ([1]; pH 3) | log D PDMS/w (apparent distribution ratio at the stated pH) ([1]; pH 7.4) | log D PDMS/w (apparent distribution ratio at the stated pH) ([1]; pH 11.5) | log K PDMS/w (neutral species) [2] | log K PDMS/w (neutral species) [3] |
| --- | --- | --- | --- | --- | --- |
| CN(C)C(=O)Nc1ccccc1 | 0.45 log units; D and K as the pape | 0.473 log units; D and K as the pape | 0.443 log units; D and K as the pape | 0.4555 log units; D and K as the pape |  |
| CC=CC(=O)N(CC)c1ccccc1C (mixture of isomers) | 2.104 log units; D and K as the pape | 2.038 log units; D and K as the pape | 2.025 log units; D and K as the pape | 2.056 log units; D and K as the pape |  |
| N#Cc1nn(-c2c(Cl)cc(C(F)(F)F)cc2Cl)c(N)c1C(F)(F)F | 1.946 log units; D and K as the pape | 1.927 log units; D and K as the pape | 1.883 log units; D and K as the pape | 1.919 log units; D and K as the pape |  |
| CCCCOCCOCCOCc1cc2c(cc1CCC)OCO2 | 3.728 log units; D and K as the pape | 3.685 log units; D and K as the pape | 3.574 log units; D and K as the pape | 3.661 log units; D and K as the pape |  |
| CCCCCCCCCCCC(=O)N(CCO)CCO | 2.742 log units; D and K as the pape | 2.767 log units; D and K as the pape | 2.749 log units; D and K as the pape | 2.753 log units; D and K as the pape |  |
| CCOC(=O)NCCOc1ccc(Oc2ccccc2)cc1 | 3.077 log units; D and K as the pape | 2.994 log units; D and K as the pape | 2.967 log units; D and K as the pape |  | 3.121 log units; D and K as the pape |
| CCN(CC)c1ccc2c(C)cc(=O)oc2c1 | 2.535 log units; D and K as the pape | 2.797 log units; D and K as the pape | 2.809 log units; D and K as the pape |  | 2.913 log units; D and K as the pape |
| CCNC(=O)[C@@H](C)OC(=O)Nc1ccccc1 | 0.635 log units; D and K as the pape | 0.5527 log units; D and K as the pape | 0.7717 log units; D and K as the pape |  | -0.07551 log units; D and K as the pape |
| c1ccc2sc(NC3CCCCC3)nc2c1 | 2.092 log units; D and K as the pape | 3.079 log units; D and K as the pape | 3.04 log units; D and K as the pape |  | 3.105 log units; D and K as the pape |
| Clc1ccc(COC(Cn2ccnc2)c2ccc(Cl)cc2Cl)c(Cl)c1 (stereo not shown) | 2.616 log units; D and K as the pape | 4.581 log units; D and K as the pape | 4.53 log units; D and K as the pape |  | 4.599 log units; D and K as the pape |
| CC(C)C(=O)Nc1ccc([N+](=O)[O-])c(C(F)(F)F)c1 | 1.476 log units; D and K as the pape | 1.423 log units; D and K as the pape |  |  | 1.525 log units; D and K as the pape |
| NC(=O)/N=C1\SCCN1Cc1ccc(Cl)nc1 | 0.2411 log units; D and K as the pape | 0.3692 log units; D and K as the pape | 0.4142 log units; D and K as the pape |  | 0.4822 log units; D and K as the pape |
| c1ccc2nc3ccccc3cc2c1 | 0.945 log units; D and K as the pape | 2.315 log units; D and K as the pape | 2.167 log units; D and K as the pape |  | 2.366 log units; D and K as the pape |
| Clc1ccccc1C(c1ccccc1)(c1ccccc1)n1ccnc1 | 2.324 log units; D and K as the pape | 4.388 log units; D and K as the pape | 4.335 log units; D and K as the pape |  | 4.471 log units; D and K as the pape |
| NC(=O)N1c2ccccc2C(O)C(O)c2ccccc21 (stereo not shown) | -0.08 log units; D and K as the pape | -0.44 log units; D and K as the pape | -0.57 log units; D and K as the pape |  | 0.07041 log units; D and K as the pape |
| CC(C)(Oc1ccc(CCNC(=O)c2ccc(Cl)cc2)cc1)C(=O)O | 1.054 log units; D and K as the pape | -0.64 log units; D and K as the pape |  |  | 1.311 log units; D and K as the pape |
| CSc1nc(NC2CC2)nc(NC(C)(C)C)n1 | 2.006 log units; D and K as the pape | 2.689 log units; D and K as the pape | 2.624 log units; D and K as the pape |  | 2.78 log units; D and K as the pape |
| c1ccc(-c2ccc(C(c3ccccc3)n3ccnc3)cc2)cc1 (stereo not shown) | 2.122 log units; D and K as the pape | 4.209 log units; D and K as the pape | 4.169 log units; D and K as the pape |  | 4.281 log units; D and K as the pape |
